Structures are written as SMILES. Values joined by “and” are separate entries in the source; they are usually repeats but may differ in a detail not shown here. Identical values can stand only once.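 1) Cells in 96-well plates. 2) Compound, 48 h, 5 concentrations. 3) Linear interpolation between surrounding doses. 4) Unreached endpoint = highest concentration. Abbreviation: GI50, concentration required for 50% inhibition of growth. TGI: concentration producing complete growth inhibition.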

The text below walks through data of PubChem BioAssay (NCI).

Among the test systems are COLO 205 colon; NCI-H522 lung; OVCAR-3 ovarian; SF-295 CNS; SNB-78 CNS; XF 498 CNS; DLD-1 colon; MDA-MB-231 breast; MDA-MB-435; PC-3 prostate.
Holding throughout (assay): NCI anticancer screen, dose series, 48 h

Take `CCOC(=O)/C(=C/c1cccc(OC)c1)N(CC)CC`: the TGI in the assay with COLO 205 colon, in the assay on NCI-H522 lung, in the assay with OVCAR-3 ovarian, with SF-295 CNS, in the assay on SNB-78 CNS and with XF 498 CNS was above 100 µM each time.
With `CC(C)c1ccccc1NC(=O)/C(Cl)=C1/Sc2ccccc2NC1=O`, the TGI in the assay with COLO 205 colon was 74.6 µM; in the assay on DLD-1 colon, above 100 µM; in the assay with NCI-H522 lung, 51.8 µM; with SNB-78 CNS, above 100 µM.
As for `CC1(c2ccccc2)CC(c2ccccc2)=NO1` (configuration not stated), the TGI in the assay on COLO 205 colon, in the assay on DLD-1 colon, with NCI-H522 lung, in the assay on OVCAR-3 ovarian, in the assay with SF-295 CNS and in the assay with SNB-78 CNS was above 100 µM each time.
Regarding `CC1(Cc2ccccc2)NC(=S)NC1=O` (configuration not stated), the TGI with COLO 205 colon, with DLD-1 colon, in the assay on NCI-H522 lung, in the assay on SF-295 CNS and with SNB-78 CNS was above 100 µM in each case.
For the compound `Cc1ccc2nc3c(Cl)c(C)c(=O)cc-3sc2c1`, the GI50 in the assay with COLO 205 colon was above 100 µM; in the assay on DLD-1 colon, 42.6 µM; in the assay on OVCAR-3 ovarian it was 50.2 µM; with SNB-78 CNS, 54 µM. Also, the TGI in the assay on COLO 205 colon, in the assay with DLD-1 colon, in the assay with NCI-H522 lung, with OVCAR-3 ovarian, in the assay on SF-295 CNS and with SNB-78 CNS was above 100 µM throughout.
Consider `O=c1c(Cl)c(Cl)cnn1CCc1ccncc1`, for which the TGI in the assay on DLD-1 colon was found to be 30.4 µM; in the assay with OVCAR-3 ovarian, 31.4 µM; in the assay on SF-295 CNS, 83 µM; with SNB-78 CNS, 49.8 µM; in the assay with XF 498 CNS, 29.6 µM.
Take `CC/C(=N\NS(=O)(=O)c1ccccc1)c1ccccc1`: the TGI in the assay on COLO 205 colon, in the assay with DLD-1 colon, in the assay with OVCAR-3 ovarian, with SF-295 CNS, in the assay with SNB-78 CNS and with XF 498 CNS was above 100 µM throughout.
Consider `Cl[Si]1(Cl)Oc2ccccc2O[Si](Cl)(Cl)Oc2ccccc2O1`, for which the TGI was 59.7 µM in the assay on COLO 205 colon; above 100 µM in the assay on DLD-1 colon; 5.4 µM with NCI-H522 lung; above 100 µM with OVCAR-3 ovarian; 98.2 µM in the assay on SF-295 CNS; 30.3 µM in the assay with XF 498 CNS.
For `CC1(C)CC[C@H](C2=CC(=O)c3c(O)ccc(O)c3C2=O)O1`, the GI50 was 0.632 µM and 0.144 µM and 0.139 µM in the assay with COLO 205 colon; 0.33 µM in the assay on MDA-MB-435; 0.55 µM and 0.0942 µM with NCI-H522 lung; 2.23 µM and 1.64 µM and 0.669 µM in the assay with OVCAR-3 ovarian; 8.48 µM and 2.4 µM and 3.24 µM with SF-295 CNS; 2.3 µM and 2.36 µM and 0.563 µM with XF 498 CNS. Moreover, the TGI was 1.66 µM and 0.388 µM and 0.227 µM in the assay with COLO 205 colon; 2.79 µM and 8.31 µM with MDA-MB-231 breast; 0.837 µM in the assay on MDA-MB-435; 1.23 µM and 0.248 µM in the assay on NCI-H522 lung; 4.87 µM and 3.02 µM and 1.61 µM with OVCAR-3 ovarian; 7.34 µM and 4.16 µM in the assay on PC-3 prostate. Besides, the TGI with SF-295 CNS was 22.1 µM and 6.73 µM and 8.11 µM; with XF 498 CNS, 4.6 µM and 3.89 µM and 1.34 µM.
Take `O=C1C2=C(c3ccccc31)C(c1ccccc1Cl)N1C(=O)CCSC1=N2` (configuration not stated): the TGI with COLO 205 colon, with DLD-1 colon, with NCI-H522 lung, in the assay with OVCAR-3 ovarian, with SF-295 CNS and in the assay with XF 498 CNS was above 100 µM throughout.
With `CC(=O)[O-].CC(=O)[O-].CC(=O)[O-].CC(=O)[O-].[Mo+2].[Mo+2]`, the GI50 with COLO 205 colon, with DLD-1 colon, with NCI-H522 lung, in the assay with OVCAR-3 ovarian, with SF-295 CNS and in the assay with SNB-78 CNS was above 100 µM each time. Moreover, the TGI in the assay on COLO 205 colon, with DLD-1 colon, in the assay with NCI-H522 lung, in the assay with OVCAR-3 ovarian, in the assay on SF-295 CNS and in the assay on SNB-78 CNS was above 100 µM each time.
With `CC(=O)[CH-]C(C)=O.[CH2-]C.[CH2-]C.[Tl+3]`, the GI50 in the assay with COLO 205 colon, in the assay with DLD-1 colon, in the assay with NCI-H522 lung, in the assay on OVCAR-3 ovarian, in the assay on SF-295 CNS and with XF 498 CNS was above 100 µM throughout. For the same compound, the TGI in the assay on COLO 205 colon, with DLD-1 colon, with NCI-H522 lung, in the assay on OVCAR-3 ovarian, with SF-295 CNS and with XF 498 CNS was above 100 µM in each case.
As to `Cc1ccc(S(=O)(=O)N/N=C(\c2nc3ccc([N+](=O)[O-])cc3[nH]c2=O)C(O)c2ccccc2Cl)cc1` (configuration not stated), the TGI was above 100 µM in the assay on COLO 205 colon; above 100 µM with DLD-1 colon; 82.6 µM in the assay on NCI-H522 lung; above 100 µM in the assay with OVCAR-3 ovarian; above 100 µM in the assay with SF-295 CNS; above 100 µM in the assay with SNB-78 CNS.
Regarding `CCOC(=O)C(=O)Nc1ccccc1C(F)(F)F`, the TGI in the assay on COLO 205 colon, in the assay on DLD-1 colon, in the assay with OVCAR-3 ovarian, with SF-295 CNS, in the assay with SNB-78 CNS and with XF 498 CNS was above 100 µM in each case.
For the compound `NC(=O)/C=C/C(=O)O`, the TGI in the assay with COLO 205 colon, with DLD-1 colon, in the assay on NCI-H522 lung, in the assay with SF-295 CNS and with SNB-78 CNS was above 5000 µM each time.
With `Cc1cc2c(Br)cc(Br)c(O)c2nc1C(=O)c1ccccc1`, the TGI in the assay on COLO 205 colon is 55.7 µM; in the assay on DLD-1 colon, above 100 µM; with MDA-MB-231 breast, 78.5 µM; with MDA-MB-435, above 100 µM; in the assay with NCI-H522 lung, above 100 µM; in the assay on OVCAR-3 ovarian, above 79 µM. The results for the TGI with PC-3 prostate, in the assay with SF-295 CNS and in the assay on SNB-78 CNS were above 100 µM, above 56.4 µM and above 100 µM, respectively.
For `C=C1CC2(OC1=O)C(=O)N(CCCN1C(=O)C3(CC(=C)C(=O)O3)c3ccccc31)c1ccccc12` (configuration not stated), the GI50 is 0.52 µM in the assay on COLO 205 colon; 1.65 µM in the assay on MDA-MB-231 breast; 1.84 µM with MDA-MB-435; 0.444 µM in the assay with NCI-H522 lung; 0.571 µM in the assay with OVCAR-3 ovarian; 2.79 µM with PC-3 prostate. Also, the GI50 with SF-295 CNS was 13.2 µM. The TGI in the assay on COLO 205 colon stood at 2.03 µM; with MDA-MB-231 breast it was 3.43 µM; in the assay with MDA-MB-435, 4.2 µM; with NCI-H522 lung, 1.87 µM; in the assay with OVCAR-3 ovarian it was 1.83 µM; in the assay on PC-3 prostate, 10.3 µM. In the assay on SF-295 CNS, the TGI was found to be 26 µM.
